Read-outs that look alike come from different tables or passages of the source.
What was measured:
SF-539 = test: NCI-60 panel cell growth screen; assay type: cell-based, human; settings: SF-539 (CNS Cancer)
HL-60 (TB) = HL-60 (TB) (Leukemia)
NCI-H23 = test: NCI-60 panel cell growth screen; assay type: cell-based, human; settings: NCI-H23 (NSCLC)
HCC-2998 = test: NCI-60 panel cell growth screen; assay type: cell-based, human; settings: HCC-2998 (Colon cancer)
U25 = test: NCI-60 panel cell growth screen; assay type: cell-based, human; settings: U25 (CNS Cancer)
NCI-H226 = test: NCI-60 panel cell growth screen; assay type: cell-based, human; settings: NCI-H226 (NSCLC)
PKC2-α = PKC2-α (Homo sapiens, UniProt O00443); test: Kinase inhibitory profile; assay type: biochemical; settings: Class II PI3Ks; 10-point concentration assays
MM cells = test: XTT viability, MM cells (DT97 vs idelalisib); assay type: cell-based; settings: parental and drug-resistant MM cells; 1 uM; 72 h; XTT assay
Procedure: Values represent the average of triplicate measurements. […] Values represent the average of triplicate measurements. […] Values represent the average of triplicate measurements.
Cells were plated, treated as indicated for 72 h and 2, 3-bis-(2-methoxy-4-nitro-5-sulfophenyl)-2H-tetrazolium-5-carboxanilide) added (Sigma-Aldrich) after activation with N-methyl dibenzopyrazine methyl sulfate (Sigma-Aldrich). Absorbance was measured and the effect on myeloma viability determined as previously described. Assays were performed in triplicate and the mean and standard deviation determined. Relative cell viability (mean ± SD) was calculated compared to readings from untreated cells.

ERBB2 = ERBB2 (Homo sapiens, UniProt P04626); test: Kinase inhibitory profile; assay type: biochemical; settings: Other Clinically-relevant Kinases; 10-point concentration assays
PKCγ = test: Kinase inhibitory profile; assay type: biochemical; settings: Class II PI3Ks; 10-point concentration assays
MOLT-4 = test: NCI-60 panel cell growth screen; assay type: cell-based, human; settings: MOLT-4 (Leukemia)
SF-295 = test: NCI-60 panel cell growth screen; assay type: cell-based, human; settings: SF-295 (CNS Cancer)
NCI-H460 = test: NCI-60 panel cell growth screen; assay type: cell-based, human; settings: NCI-H460 (NSCLC)
NCI-H332M = test: NCI-60 panel cell growth screen; assay type: cell-based, human; settings: NCI-H332M (NSCLC)
p110-γ = p110-γ (Homo sapiens, UniProt P48736); test: Kinase inhibitory profile / PIP3 production
Procedure: To directly assess PI3K activity, PI3K was isolated by immunoprecipitation using an antibody to the p85 adapter subunit and the ability of the co-precipitated catalytic p110 subunit to convert PIP2 to PIP3 in a kinase reaction assessed by measuring the amount of PIP3 generated using a competitive ELISA [40, 41]. […] Lysates were centrifuged at 13,000 × rpm for 10 min and supernatants stored at −80°C. Frozen lysates were thawed and PI3K immunoprecipitated with 5 μl anti-PI3K p85 (Cell Signaling Technology, Danvers, MA) for 1 h at 4°C, followed by the addition of 60 μl of a 50% slurry of Protein A agarose beads for 1 h at 4°C. The immunoprecipitate was collected by centrifugation at 13,000 × rpm for 10 sec, washed 3 times in buffer A + 1% NP40, thrice with 0.1 M Tris-HCl, pH 7.4, 5 mM LiCl, 0.1 mM Na orthovanadate and twice with 10 mM Tris-HCl, pH 7.4, 150 mM NaCl, 5 mM ethylenediaminetetraacetic acid (EDTA), 0.1 mM Na orthovanadate. […] Reactions were incubated for 3 h at 37°C with 40 pmol PIP2 (Echelon Biosciences, Salt Lake City, UT). Reactions were stopped with EDTA (5 mM) and centrifuged at 13,000 × rpm at 4°C. Supernatants were transferred to a microtitre plate for a competitive ELISA (Echelon Biosciences) to quantify PIP3 generated. […] Absorbance was measured (450 nm) and PIP3 quantified using a standard curve generated with experimental samples and plotted on a log scale.

COLO205 = test: NCI-60 panel cell growth screen; assay type: cell-based, human; settings: COLO205 (Colon cancer)
[1] = system: peripheral blood mononuclear cells (PBMCs); test: Apoptosis (in situ cell death detection) in PBMCs; assay type: cell-based; settings: Figure 5B
[2] = system: Myeloma/ Leukemia/ Lymphoma; test: NCI-60 panel cell growth screen (Figure 6); assay type: cell-based, human
BMSCs = test: XTT viability of BMSCs; assay type: cell-based; settings: 72 h, XTT assay
IL-6 = IL-6 ELISA, MM cells co-cultured with BMSCs; assay type: cell-based, human
MAPK = test: Kinase inhibitory profile; assay type: biochemical; settings: Other Clinically-relevant Kinases; 10-point concentration assays
RPMI-8226 = test: NCI-60 panel cell growth screen; assay type: cell-based, human; settings: RPMI-8226 (Leukemia)
[3] = read-out: LC50 (the source's name)

Chain of p110-γ (P48736 whole entry): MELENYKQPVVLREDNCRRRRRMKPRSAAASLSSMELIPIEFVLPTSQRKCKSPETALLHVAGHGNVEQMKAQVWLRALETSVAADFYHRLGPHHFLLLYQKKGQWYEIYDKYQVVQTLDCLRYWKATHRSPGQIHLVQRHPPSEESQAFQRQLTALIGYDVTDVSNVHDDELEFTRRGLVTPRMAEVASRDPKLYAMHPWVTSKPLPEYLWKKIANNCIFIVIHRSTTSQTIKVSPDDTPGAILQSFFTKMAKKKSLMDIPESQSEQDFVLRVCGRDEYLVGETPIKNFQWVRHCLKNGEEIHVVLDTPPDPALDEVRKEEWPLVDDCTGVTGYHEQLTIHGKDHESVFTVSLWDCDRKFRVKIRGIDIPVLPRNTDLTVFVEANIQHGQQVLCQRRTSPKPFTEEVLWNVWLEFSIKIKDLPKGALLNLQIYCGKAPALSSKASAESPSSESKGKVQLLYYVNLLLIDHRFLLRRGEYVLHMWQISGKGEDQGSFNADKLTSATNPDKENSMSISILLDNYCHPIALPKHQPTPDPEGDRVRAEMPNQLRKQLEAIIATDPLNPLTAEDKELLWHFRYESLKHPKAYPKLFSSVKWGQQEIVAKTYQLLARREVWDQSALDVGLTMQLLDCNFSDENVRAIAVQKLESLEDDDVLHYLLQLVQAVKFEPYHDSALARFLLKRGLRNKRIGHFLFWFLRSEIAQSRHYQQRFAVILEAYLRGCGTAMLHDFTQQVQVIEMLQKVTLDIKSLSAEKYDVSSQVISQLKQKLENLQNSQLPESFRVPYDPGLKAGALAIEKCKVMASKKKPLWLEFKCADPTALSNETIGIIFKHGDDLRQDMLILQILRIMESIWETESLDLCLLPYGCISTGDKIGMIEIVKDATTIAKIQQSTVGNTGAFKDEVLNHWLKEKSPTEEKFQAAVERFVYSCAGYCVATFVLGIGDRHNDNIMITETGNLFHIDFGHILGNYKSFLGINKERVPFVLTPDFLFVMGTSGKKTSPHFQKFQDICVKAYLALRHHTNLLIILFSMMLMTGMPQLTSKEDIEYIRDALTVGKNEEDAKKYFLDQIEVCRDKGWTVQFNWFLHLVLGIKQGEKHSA
Chain of PKC2-α (O00443 whole entry): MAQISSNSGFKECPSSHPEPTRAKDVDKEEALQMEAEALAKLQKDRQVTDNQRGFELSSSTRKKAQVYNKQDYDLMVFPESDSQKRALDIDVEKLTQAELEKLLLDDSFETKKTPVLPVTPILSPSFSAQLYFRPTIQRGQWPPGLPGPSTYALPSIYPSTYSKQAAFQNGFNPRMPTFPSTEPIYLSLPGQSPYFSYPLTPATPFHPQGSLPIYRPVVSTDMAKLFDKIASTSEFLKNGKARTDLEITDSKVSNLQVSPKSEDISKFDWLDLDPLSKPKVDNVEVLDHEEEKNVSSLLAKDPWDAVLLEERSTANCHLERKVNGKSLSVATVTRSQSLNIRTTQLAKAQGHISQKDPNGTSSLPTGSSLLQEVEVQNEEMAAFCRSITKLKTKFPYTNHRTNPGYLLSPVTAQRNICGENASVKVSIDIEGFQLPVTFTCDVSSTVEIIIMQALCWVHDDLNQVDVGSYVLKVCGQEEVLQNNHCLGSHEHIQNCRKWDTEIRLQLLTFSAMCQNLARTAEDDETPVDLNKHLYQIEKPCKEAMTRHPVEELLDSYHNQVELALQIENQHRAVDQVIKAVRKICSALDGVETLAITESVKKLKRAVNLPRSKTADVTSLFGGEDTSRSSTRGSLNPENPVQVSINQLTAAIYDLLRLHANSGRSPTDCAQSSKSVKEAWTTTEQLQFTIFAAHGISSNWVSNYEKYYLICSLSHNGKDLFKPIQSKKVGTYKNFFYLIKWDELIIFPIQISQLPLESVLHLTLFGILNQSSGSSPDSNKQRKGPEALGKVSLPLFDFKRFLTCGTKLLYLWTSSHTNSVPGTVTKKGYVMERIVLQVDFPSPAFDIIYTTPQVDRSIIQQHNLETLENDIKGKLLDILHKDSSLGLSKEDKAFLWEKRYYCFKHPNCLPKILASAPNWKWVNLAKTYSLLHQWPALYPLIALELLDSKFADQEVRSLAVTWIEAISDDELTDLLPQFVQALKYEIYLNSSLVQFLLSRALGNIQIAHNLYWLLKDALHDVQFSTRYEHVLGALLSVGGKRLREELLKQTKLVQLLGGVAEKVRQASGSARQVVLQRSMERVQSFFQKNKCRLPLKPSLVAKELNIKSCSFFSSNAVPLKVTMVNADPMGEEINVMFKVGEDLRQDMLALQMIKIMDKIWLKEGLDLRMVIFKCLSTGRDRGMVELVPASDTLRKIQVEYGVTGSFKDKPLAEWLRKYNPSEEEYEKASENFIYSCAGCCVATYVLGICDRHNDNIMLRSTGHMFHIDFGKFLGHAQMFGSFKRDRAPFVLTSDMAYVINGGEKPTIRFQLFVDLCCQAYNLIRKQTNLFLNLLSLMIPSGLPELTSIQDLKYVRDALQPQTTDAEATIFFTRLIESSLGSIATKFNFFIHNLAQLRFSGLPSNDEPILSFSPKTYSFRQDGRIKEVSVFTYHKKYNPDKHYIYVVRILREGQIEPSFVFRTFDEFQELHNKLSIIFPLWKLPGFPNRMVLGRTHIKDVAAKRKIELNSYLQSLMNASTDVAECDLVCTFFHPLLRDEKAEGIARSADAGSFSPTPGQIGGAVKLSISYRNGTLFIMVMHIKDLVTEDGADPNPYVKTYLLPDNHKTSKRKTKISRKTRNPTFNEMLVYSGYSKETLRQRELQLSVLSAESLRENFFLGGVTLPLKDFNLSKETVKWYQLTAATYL

N-[4-hydroxy-3-(8-quinolinylthio)-1-naphthyl]benzenesulfonamide [DT97]
GI50 (SF-539): 957 nM | TGI (SF-539): 5.13E-6 | Percent Growth (SF-539; log concentration −4.0): −86% | Percent Growth (SF-539; log concentration −5.0): −20% | Percent Growth (SF-539; log concentration −6.0): 49% | Percent Growth (SF-539; log concentration −7.0): 98% | Percent Growth (SF-539; log concentration −8.0): 93% | CC50 (SF-539; [3]): 28500 nM | GI50 (HL-60 (TB)): 487 nM | TGI (HL-60 (TB)): 4.69E-6 | Percent Growth (HL-60 (TB); log concentration −4.0): −63% | Percent Growth (HL-60 (TB); log concentration −5.0): −15% | Percent Growth (HL-60 (TB); log concentration −6.0): 31% | Percent Growth (HL-60 (TB); log concentration −7.0): 93% | Percent Growth (HL-60 (TB); log concentration −8.0): 99% | CC50 (HL-60 (TB); read-out: LC50): 53100 nM | GI50 (NCI-H23): 1930 nM | TGI (NCI-H23): 1.28E-5 | Percent Growth (NCI-H23; log concentration −4.0): −58% | Percent Growth (NCI-H23; log concentration −5.0): 7% | Percent Growth (NCI-H23; log concentration −6.0): 67% | Percent Growth (NCI-H23; log concentration −7.0): 102% | Percent Growth (NCI-H23; log concentration −8.0): 98% | CC50 (NCI-H23; [3]): 75900 nM | GI50 (HCC-2998): 4770 nM | TGI (HCC-2998): 1.91E-5 | Percent Growth (HCC-2998; log concentration −4.0): −82% | Percent Growth (HCC-2998; log concentration −5.0): 32% | Percent Growth (HCC-2998; log concentration −6.0): 88% | Percent Growth (HCC-2998; log concentration −7.0): 106% | Percent Growth (HCC-2998; log concentration −8.0): 105% | CC50 (HCC-2998; [3]): 52400 nM | GI50 (U25): 780 nM | TGI (U25): 2.42E-5 | Percent Growth (U25; log concentration −4.0): −13% | Percent Growth (U25; log concentration −5.0): 8% | Percent Growth (U25; log concentration −6.0): 43% | Percent Growth (U25; log concentration −7.0): 107% | Percent Growth (U25; log concentration −8.0): 103% | CC50 (U25; [3]): > 100000 nM | GI50 (NCI-H226): 2450 nM | TGI (NCI-H226): 2.54E-5 | Percent Growth (NCI-H226; log concentration −4.0): −40% | Percent Growth (NCI-H226; log concentration −5.0): 27% | Percent Growth (NCI-H226; log concentration −6.0): 65% | Percent Growth (NCI-H226; log concentration −7.0): 94% | Percent Growth (NCI-H226; log concentration −8.0): 92% | Inhibitory profile (kinase inhibition) (PKC2-α): none | viability (MM cells): more potently than idelalisib | Inhibitory profile (kinase inhibition) (ERBB2): + | Inhibitory profile (kinase inhibition) (PKCγ): none | GI50 (MOLT-4): 546 nM | LC50 (MOLT-4): > 100000 nM | TGI (MOLT-4): 5.53E-6 | Percent Growth (MOLT-4; log concentration −4.0): −28% | Percent Growth (MOLT-4; log concentration −5.0): 9% | Percent Growth (MOLT-4; log concentration −6.0): 27% | Percent Growth (MOLT-4; log concentration −7.0): 116% | Percent Growth (MOLT-4; log concentration −8.0): 111% | GI50 (SF-295): 2840 nM | TGI (SF-295): 1.50E-5 | Percent Growth (SF-295; log concentration −4.0): −78% | Percent Growth (SF-295; log concentration −5.0): 17% | Percent Growth (SF-295; log concentration −6.0): 78% | Percent Growth (SF-295; log concentration −7.0): 94% | Percent Growth (SF-295; log concentration −8.0): 92% | CC50 (SF-295; [3]): 50700 nM | GI50 (NCI-H460): 499 nM | TGI (NCI-H460): 1.37E-5 | Percent Growth (NCI-H460; log concentration −4.0): −48% | Percent Growth (NCI-H460; log concentration −5.0): 7% | Percent Growth (NCI-H460; log concentration −6.0): 29% | Percent Growth (NCI-H460; log concentration −7.0): 98% | Percent Growth (NCI-H460; log concentration −8.0): 101% | GI50 (NCI-H332M): 2310 nM | LC50 (NCI-H332M): 39400 nM | TGI (NCI-H332M): 1.37E-5 | Percent Growth (NCI-H332M; log concentration −4.0): −94% | Percent Growth (NCI-H332M; log concentration −5.0): 15% | Percent Growth (NCI-H332M; log concentration −6.0): 70% | Percent Growth (NCI-H332M; log concentration −7.0): 94% | Percent Growth (NCI-H332M; log concentration −8.0): 94% | Inhibitory profile (kinase inhibition) (p110-γ; Class I PI3Ks, 10-point concentration assays): none | production of PIP3 (dose-dependent effect) (p110-γ; p110-γ isoform, Figure 4B): no effect | GI50 (COLO205): 1710 nM | TGI (COLO205): 3.70E-6 | Percent Growth (COLO205; log concentration −4.0): −59% | Percent Growth (COLO205; log concentration −5.0): −64% | Percent Growth (COLO205; log concentration −6.0): 85% | Percent Growth (COLO205; log concentration −7.0): 99% | Percent Growth (COLO205; log concentration −8.0): 94% | CC50 (COLO205; [3]): 8030 nM | apoptosis [1]: did not induce apoptosis | IC50 [2]: ~450 nM | viability (BMSCs): did not significantly reduce the viability | production of Il-6 (IL-6): induction was inhibited | Inhibitory profile (kinase inhibition) (MAPK): + | GI50 (RPMI-8226): 2380 nM | TGI (RPMI-8226): 7.90E-6 | Percent Growth (RPMI-8226; log concentration −4.0): −9% | Percent Growth (RPMI-8226; log concentration −5.0): −10% | Percent Growth (RPMI-8226; log concentration −6.0): 86% | Percent Growth (RPMI-8226; log concentration −7.0): 92% | Percent Growth (RPMI-8226; log concentration −8.0): 101% | CC50 (RPMI-8226; [3]): > 100000 nM

— article PMC5122408, “High throughput chemical library screening identifies a novel p110-δ inhibitor that potentiates the anti-myeloma effect of bortezomib” (Oncotarget, 2016)
